Assay results from patent EP0158545A1, “[Alpha-(alkylaminomethyl)-benzylthio]-acetic-acid derivatives, process for their preparation and their therapeutic use” (priority 1984, dated 1985).

Experiments:
[1] = test system: souris mâle; settings: mouse, in vivo, ip
Experimental: (§1) On a résumé ci-après les résultats des essais neuropsychopharmacologiques qui ont été entrepris avec les produits préférés selon l'invention, le CRL 41 190 (Ex 1) et le CRL 41 214 (Ex 3). Dans ce résumé, les deux produits à tester mis en solution dans de l'eau distillée ont été administrés, sauf indiction contraire, par voie intrapéritonéale sous un volume de 20 ml/kg chez la souris mâle et sous un volume de 5 ml/kg chez le rat mâle. […]
La DL-0 (dose maximale non mortelle) du CRL 41 190 est supérieure à 128 mg/kg par voie I.P. chez la souris mâle, et la DL-30 est de l'ordre de 256 mg/kg.
Par voie I.P. chez la souris mâle, la DL-0 est supérieure à 256 mg/kg.

[2] = test system: souris; assay: Global behaviour and reactivities, mouse; assay type: in vivo; settings: I.P.
Experimental: as §1
(§2) Des lots de trois animaux sont observés avant puis 0,25 h, 0,5, h, 1 h, 2 h, 3 h et 24 h après administration de CRL 41 190.

[3] = test system: rat; assay: Global behaviour and reactivities, rat; assay type: in vivo; settings: I.P.
Experimental: as §1, §2

[4] = test system: souris; assay: Interaction with apomorphine, mouse; assay type: in vivo; settings: product I.P. 0,50 h before s.c. apomorphine
Experimental: • 1°) chez la souris • Des lots de 6 souris reçoivent le produit à étudier 0,50 h avant une injection sous-cutanée de 1 mg/kg ou 16 mg/kg d'apomorphine.

[5] = test system: rat; assay: Interaction with apomorphine, rat; assay type: in vivo; settings: product I.P. 0,50 h before s.c. 0,5 mg/kg apomorphine
[6] = test system: rats; assay: Interaction with amphetamine (stereotypies), rat; assay type: in vivo; settings: amphétamine 2 mg/kg I.P. half an hour after product, doses de 8 et 32 mg/kg
Experimental: L'amphétamine (2 mg/kg) est injectée par voie intrapéritonéale à des lots de 6 rats, une demi -heure après l'administration de CRL 41 190.

[7] = test system: souris; assay: Interaction with reserpine (hypothermia, ptosis), mouse; assay type: in vivo
Experimental: Quatre heures après l'injection intrapéritonéale de 2,5 mg/kg de réserpine, des lots de 12 souris reçoivent le CRL 41 190. On étudie l'influence du produit à tester sur l'hypothermie et le ptôsis réserpiniques.

[8] = test system: souris; assay: Interaction with oxotremorine, mouse; assay type: in vivo
[9] = test system: souris; assay: Four-plate test, traction and electroshock, mouse; assay type: in vivo
Experimental: Le test est pratiqué sur des lots de 10 souris 0,50 h après l'administration du produit à étudier.

[10] = test system: souris; assay: Spontaneous motility (actimeter), mouse; assay type: in vivo; settings: souris, 0,5 h after I.P., recorded 30 minutes; plus forte dose utilisée (64 mg/kg)
[11] = test system: souris; assay: Intergroup aggressiveness, mouse; assay type: in vivo; settings: half an hour after I.P., 10 minutes, plus forte dose utilisée (64 mg/kg)
Experimental: Après avoir séjourné pendant 3 semaines dans chacune des moitiés d'une cage séparées par une cloison opaque, des groupes de 3 souris reçoivent le CRL 41 190. Une demi-heure plus tard, les deux groupes d'une même cage sont réunis par retrait de la cloison et on note le nombre de combats qui surviennent en 10 minutes.

[12] = test system: souris; assay: Motility reduced by habituation to the enclosure, mouse; assay type: in vivo; settings: I.P., after 18 heures in actimeter
[13] = test system: souris; assay: Asphyxic anoxia (gallamine triethiodide), mouse; assay type: in vivo; settings: product I.P. half an hour before triiodoéthylate de gallamine 32 mg/kg I.P.
[14] = test system: souris; assay: Interaction with barbital (sleep duration), mouse; assay type: in vivo; settings: barbital 220 mg/kg I.P. half an hour after product, plus forte dose utilisée (64 mg/kg)
[15] = test system: souris; assay: Behavioural despair (forced immersion), mouse; assay type: in vivo; settings: half an hour after I.P., plus forte dose utilisée (64 mg/kg)
From the text: On note la durée totale d'immobilité entre la 2ème et la 6ème minutes suivant l'immersion.

[16] = test system: souris mâle; assay: Complementary neuropsychopharmacological tests by gastric route, mouse; assay type: in vivo; settings: voie gastrique, 20 ml/kg in distilled water
Experimental: Des essais complémentaires ont été entrepris, le CRL 41 190 en solution dans de l'eau distillée étant administré par voie gastrique sous un volume de 20 ml/kg chez la souris mâle.

[17] = test system: l'homme; assay: Clinical treatment of depression, oral administration; assay type: in vivo
[18] = test system: souris; settings: half an hour after I.P., dépression de 600 mmHg
[19] = oxotrémorine 0,5 mg/kg I.P., dose de 64 mg/kg
[20] = souris, 0,50 h after I.P. administration

CC(C)(C)NCC(SCC(N)=O)c1ccccc1 (racemic) [CRL 41 190, chlorhydratede [α-(tertiobutylamino-méthyl)-benzyl]-thioacétamide]
DL-0 (dose maximale non mortelle) [1]: > 128 mg/kg
DL-30 [1]: ~256 mg/kg
comportement global et réactivités ([2]; dose de 1 mg/kg, observed 0,25 h to 24 h): aùcune modification nette du comportement et et des réactivités
comportement global et réactivités ([2]; dose de 64 mg/kg): une augmentation de la réaction de peur pendant 1 h et de la réactivité au toucher de 0,5 h à 1 h, une sédation, et, une mydriase faible pendant 1 h
comportement global et réactivités ([2]; doses de 4 et 16 mg/kg): une augmentation de la réaction de peur, d'υne part, et une augmentation de la réactivité au toucher pendant 0,5 h
comportement global et réactivités ([3]; dose de 32 mg/kg): une mydriase pendant 1 h
comportement global et réactivités ([3]; doses de 0,5 mg/kg à 8 mg/kg): un comportement, des réactivités, une variation de la température rectale, et une variation du diamètre pupillaire sensiblement comparables à ceux du lot témoin
comportements de verticalisation et stéréotypies (apomorphine) [4]: ne sont pratiquement pas modifiés
hypothermie induite par 16 mg/kg d'apomorphine ([4]; dès la dose de 1 mg/kg): antagonise dès la dose de 1 mg/kg l'hypothermie induite par 16 mg/kg d'apomorphine
hypothermie induite par 1 mg/kg d'apomorphine ([4]; plus forte dose utilisée (64 mg/k)): s'oppose à l'hypothermie induite par 1 mg/kg d'apomorphine
stéréotypies induites par l'apomorphine [5]: laisse inchangées les stéréotypies induites par l'apomorphine
durée des stéréotypies amphétaminiques [6]: augmente nettement la durée des stéréotypies amphétaminiques
hypothermie réserpinique ([7]; product 4 h after réserpine 2,5 mg/kg I.P., dès la dose de 4 mg/kg): antagonise l'hypothermie réserpinique
ptôsis réserpinique ([7]; réserpine 2,5 mg/kg I.P., 16 mg/kg et 64 mg/kg, from half an hour after administration): antagonise faiblement le ptôsis réserpinique
hypothermie réserpinique ([7]; réserpine 2,5 mg/kg I.P., deux plus fortes doses (16 mg/kg et 64 mg/kg)): Cet antagonisme est très net
signes de stimulation cholinergique périphérique dûs à l'oxotrémorine ([8]; oxotrémorine 0,5 mg/kg I.P., aux autres doses (below 64 mg/kg)): ne modifie pratiquement pas les signes de stimulation cholinergique péripherique dûs à l'oxotrémorine
intensité des tremblements dûs à l'oxotrémorine [8, 19]: diminue faiblement l'intensité des tremlblements dûs à l'oxotrémorine
salivation (symptômes cholinergiques périphériques) [8, 19]: diminue faiblement la salivation entre les 1,5 h et 2 h qui suivent son administration
hypothermie induite par l'oxotrémorine ([8]; oxotrémorine 0,5 mg/kg I.P., doses de 4 mg/kg, 16 mg/kg et surtout 64 mg/kg): Cet antagonisme est net
hypothermie induite par l'oxotrémorine ([8]; product half an hour before oxotrémorine 0,5 mg/kg I.P., dès la dose de 1 mg/kg): s'oppose à l'hypothermie induite par l'oxotrémorine
effets convulsivants de l'électrochoc [9, 20]: ne modifie pas les effets convulsivants
incapacité motrice (traction) [9, 20]: ne provoque pas d'incapacité motrice majeure
nombre de passages punis (test des quatre plaques) [9, 20]: n'entraîne pas d'augmentation du nombre de passages punis
effets létaux de l'électrochoc ([9]; souris, I.P., dose de 64 mg/kg): aggrave, à la dose de 64 mg/kg, les effets létaux de l'électrochoc
activité motrice spontanée [10]: ne modifie pratiquement pas l'activité motrice spontanée de la souris
nombre de combats [11]: augmente modérément le nombre de combats
reprise d'activité motrice chez la souris habituée à son enceinte [12]: n'entraîne pas de reprise d'activité motrice chez la souris habituée à son enceinte
délai d'apparition des convulsions et de la mort consécutives à une anoxie asphyxique [13]: ne modifie pas le délai d'apparition des convulsions et de la mort
durée du sommeil barbiturique [14]: diminue la durée du sommeil barbiturique
durée de l'immobilité de la souris placée en immersion forcée [15]: diminue nettement la durée de l'immobilité de la souris placée en immersion forcée
overall CNS profile by gastric route [16]: agit essentiellement en tant qu'antidépresseur avec, à fortes doses, une composante éveillante et stimulante très modérée
traitement des dépressions chez l'homme ([17]; administration orale, gélules ou comprimés 25 mg ou 50 mg, 1 à 2 prises par jour, deux à trois semaines): bons résultats
propriétés antidépressives chez les personnes agées ([17]; clinical, oral): se manifestaient de façon très bénéfique chez les personnes agées
récupération motrice après anoxie hypobare aigue [18]: n'entraîne pas d'amélioration de la récupération motrice
